The text below walks through data of US4565813A, “1,4-Thiazine derivatives” (Zenyaku Kogyo Kabushiki Kaisha, priority 1983, dated 1986).

Like-named read-outs stand apart in the source and are kept apart here.

Data set [1] deals with isolated atria. Nature of the data set: Contractile force of isolated atria. Details: species or system guinea pig (male Hartley). The conditions noted are these: Cavia porcellus; 50.0 μg/ml, isolated guinea pig atria; read-out: Maximum Contractile Force (increase). As for the experimental part:
The pharmacological effects of the compound of the following general formula I will now be described: [drawing 9] wherein R1, R2 and R3 are as defined above. (1) The contractile force of isolated atria was tested according to the method of L. J. Macleod described in Pharmacological Experiments on Intact Preparations, pages 112-115 (1970). A 7-weeks-old male Hartley guinea pig (having a body weight of about 350 g) was killed by a blow on the head. The chest was opened and the heart was removed as quickly as possible and placed in Ringer-Locke solution (prepared by adding distilled water to 9.0 g of sodium chloride, 0.25 g of potassium chloride, 0.15 g of calcium chloride and 1.0 g of glucose so that the total amount was 1,000 ml) at room temperature. All other tissues was cut away until nothing was left except the atria. Threads were tied to each tip of the atria and the preparation thus obtained was mounted in Ringer-Locke solution at 30±1° C., through which a brisk stream of pure oxygen was bubbled. One thread was attached to a fixed pin in the Magnus' bath and the other to a force-displacement transducer connected to an electrical amplifier and recorder. When the rate and amplitude became constant, recording was started. After 1 minute, the solution of sample compound was injected and recording was conducted for 2 minutes. After completion of recording, the isolated atria was washed with Ringer-Locke solution until the rate and amplitude became constant. After 15 minutes, recording was started again.

Data set [2] concerns coronary blood flow. The data set is described as follows: Coronary-vasodilating action (Langendorff's method). On the set-up: species or system guinea pig (male Hartley). The conditions noted are these: Cavia porcellus; for activation at 0.1 mg: dose 100 μg. As for the experimental part: (3) The coronary-vasodilating effect was tested according to the method disclosed in Basic Lectures of Medicine Development, Volume V, Pharmacological Test Methods, Part 2, page 537 (1971). A 7-weeks-old male Hartley guinea pig (having a body weight of about 350 g) was used. And the measurement was carried out under a perfusion pressure of about 60 mmHg according to the Langendorff's method by using as a nutrient solution a Krebs' solution. The incubation temperature was 37° C.

Data set [3] has as its system systolic blood pressure and heart rate, rats. The data set is described as follows: Effect on systolic blood pressure and heart rate (indirect tail-cuff method). In kind it is in vivo, rat (male Wistar). The conditions noted are these: 25 mg/kg p.o. The procedure: Male Wister rats (having a body weight of about 350 g) were used. Systolic blood pressure and heart rate were measured in rats by indirect tail-cuff method, using a programmed electrosphymomanometer.

In data set [4] the test system is isolated papillary muscles. The data set is described as follows: Contractile force of isolated papillary muscles. Details: species or system cat (female). As to conditions: Felis catus, isolated cat papillary muscles, read-out: Maximum Contractile Force (increase); for activation at 10 µg/mL: 1.0 × 10^-5 g/ml. As for the experimental part:
(2) The contractile force of isolated papillary muscles was tested according to the method described in Basic Lectures of Medicine Development, Volume V, Pharmacological Test Methods, Part 2, page 535 (1971). A female cat (having a body weight of about 3.5 kg) was anaesthetized with ether-chloroform gas and exsanguinated. The chest of each cat was opened and the heart was excised, rinsed with Krebs-Henseleitsolution (prepared by adding distilled water to 6.92 g of sodium chloride, 0.35 g of calcium chloride, 0.29 g of magnesium sulfate, 0.16 g of mono-basic potassium phosphate, 2.1 g of sodium bicarbonate and 1.8 g of glucose so that the total amount was 1 l) and one or more small, thin papillary muscles from the right ventricule were dissected. Then papillary muscles were mounted in 20 ml Magnus' bath containing Krebs-Henseleit solution bubbled with oxygen gas at a temperature of 30±1° C. The papillary muscles were stimulated electrically at the rate of 2 beat/sec. and a voltage of 20% above threshold. The developed tension of the muscles was recorded isometrically on recorder by the use of force displacement tansducers.

The subject of data set [5] is ventricular muscle and heart rate, anaesthetized dog. Nature of the data set: Contractile force of ventricular muscle and heart rate of anaesthetized dog. It is filed as in vivo, dog (male). As to conditions: for Heart Rate (up): infused i.v. 320 μg/kg/minute, anaesthetized dog; for Contractile Force of Ventricular Muscles (increase): infused i.v. (left femoral vein) 320 μg/kg/minute until maximum inotropic effect. As for the experimental part:
(4) The contractile force of ventricular muscle and heart rate in anaesthetized dog was tested according to the method described in Basic Lectures of Medicine Development, Volume V, Pharmacological Test Methods, Part 2, page 544 (1971). A male dog (having a body weight of about 12-14 kg) was anaesthetized with 40 mg/kg body weight of pentobarbital sodium (i.p.). Supplemental dose of pentobarbital was administered whenever necessary. An intra-tracheal cannula was inserted and ventilation was carried out by means of Harvard constant-volume, positive pressure pump using room air. The chest was opened by a midline incision and the heart was suspended in the pericardial cradle. The contratile force of the myocardium was measured by means of Walton-Brodie type strain-gauge arch sutured onto the left ventricle. Systemic blood pressure was measured from the left femoral artery by a pressure transducer and heart rate was calculated by blood pressure pulses. Sample compounds were infused into the left femoral vein at a rate of 320 μg/kg/minute until a maximum inotropic effect is obtained.

Data set [6] relates to platelet aggregation. The data set is described as follows: Inhibition of platelet aggregation. It is filed as cell-based, rat (male Wistar). As to conditions: Rattus norvegicus, 83.0 μg/ml. As for the experimental part:
(5) The inhibition of platelet aggregation was determined according to the method of Yamazaki [Hiroo Yamazaki, Clinical Inspections, 22, (9) 935-943 (1978)]. Eleven-weeks-old male Wistar rats (having a body weight of about 350 g) were used. Blood was drawn by venupuncture in the […]. Nine fold volume of blood was drawn, with mixing, into a syringe containing one volume of 3.1% (W/V) sodium citrate. Platelet-rich-plasma (PRP) was collected as the supernatant after centrifuging the citrated blood at 1,000 rpm for 10 min. Platelet-poor-plasma (PPP) was the resulting supernatant after the residual citrated blood was additionally centrifuged at 3,000 rpm for 10 min. Each 210 μl aliquot of PPP and PRP was placed in cuvette and stirred at 37° C. in aggregometer. The aggregation reactions were determined by changes in light transmissions. A 20 μl sample was injected into PRP in the aggregometer, and 1-2 min. later, a 20 μl aggregation stimulant was injected. Aggregation pattern and maximal aggregation rate of each sample were compared with those of control. 100 μM of ADP (adenosine-5'-diphosphate or 100 μg/ml of collagen was used as the aggregation stimulant. The obtained results are shown in Table 5.

The subject of data set [7] is smooth muscle of bronchus. Nature of the data set: Bronchodilation effect (tracheal ring chain). Details: species or system guinea pig (male Hartley). The procedure: (7) The bronchodilation effect was tested according to the method of L. J. Macleod in Pharmacological Experiments on Intact Preparations, Pages 100-103 (1970). A 7-weeks-old, male Hartley guinea pig (having a body weight of about 350 g) was killed by a blow on the head and cutting the throat. The trachea was dissected out and transferred into Krebs' solution. The excessive tissue was removed and the trachea was cut transversely with great care not to damage smooth muscle, to form at least 5 tracheal rings which are tied together so as to form chain. One thread was attached to a fixed pin in the Magnus' bath and the other, to a force-displacement transducer connected to an electrical amplifier and recorder. Experiments with this preparation were performed at 37±1° C. in Krebs' solution through which O2 plus 5% CO2 was bubbled. The sample compound was injected and the recording was conducted for 4 minutes. After completion of the recording, the sample was washed out with Krebs' solution until the base line became stable. After 30 to 50 minutes, the recording was started again.

Data set [8] is described as follows: Acute toxicity (Litchfield-Wilcoxon method). The conditions noted are these: mouse, in vivo, iv; tail vein, 6-weeks-old male ddY mice. The procedure: The acute toxicity of the compound of the general formula I was determined according to the Litchfield-Wilcoxon method [J. Pharm. Exp. Ther., 96, 99 (1949)] using 6-weeks-old male ddY mice (having a body weight of 19 to 24 g) while administrating the sample compound in the tail vein.

[9] abbreviates: 0.5 h, dose 500 μg, 30 minutes, read-out: Coronary Blood Flow Increase Ratio, 30 Minutes after Administration.
Setting [10] is: dose 500 μg, read-out: Coronary Blood Flow Increase Ratio, Maximum Increase Ratio of Sample.
The mark [11] stands for this setting: read-out: Coronary Blood Flow Increase Ratio, Maximum Increase Ratio of Sample.

`CC1=C(C2CCNCC2)SCC(=O)N1` [By-product, 5-methyl-6-(4-piperidinyl)-2H-1,4-thiazin-3(4H)-one]: the activation at 50 µg/mL in data set [1] is 5%. Also, the results for the activation at 0.5 mg in data set [2] (setting [9]) and in data set [2] (setting [10]) were 5% and 12%, respectively.
Regarding `Cc1[nH]c(=O)c(C#N)cc1-c1ccncc1` [Milrinone], in data set [3], the “Blood Pressure (systolic), direction of change” value (shortened to “Blood Pressure … of change”) is recorded as “decrease” and the “Heart Rate (up)” value worked out at 51%.
Regarding `CC1=C(c2ccncc2)SCC(=O)N1C` [R1 = CH3, R2 = CH3, R3 = H, 4,5-dimethyl-6-(4-pyridinyl)-2H-1,4-thiazin-3-one], the activation at 50 µg/mL in data set [1] came out at 18%. The activation at 0.1 mg in data set [2] (0.5 h, 30 minutes, read-out: Coronary Blood Flow Increase Ratio, 30 Minutes after Administration) worked out at 8%; in data set [2] (setting [11]) it was 28%.
Regarding `CC1=C(c2ccncc2)SCC(=O)N1` [R1 = H, R2 = CH3, R3 = H, 5-methyl-6-(4-pyridinyl)-2H-1,4-thiazin-3(4H)-one], the activation at 50 µg/mL in data set [1] stood at 40%. The activation at 10 µg/mL in data set [4] was 61%. For the same compound, in data set [4] (1.0 × 10^-6 g/ml), the activation at 1 µg/mL worked out at 27%. Moreover, the activation at 0.5 mg came to 10% in data set [2] (setting [9]) and 71% in data set [2] (setting [10]). The “Heart Rate (up)” value in data set [5] was 30%; in data set [3], 19%. Besides, in data set [5], the “Contractile Force of Ventricular Muscles (increase)” value turned out to be 170%. Also, the inhibition at 83 µg/mL in data set [6] (stimulant 100 μM ADP, read-out: Aggregation Inhibition Ratio, ADP) was 80%; in data set [6] (stimulant 100 μg/ml collagen, read-out: Aggregation Inhibition Ratio, Collagen), 100%. Moreover, in data set [3], the “Blood Pressure … of change” value was “decrease”. Also, the “Influence of Smooth Muscle of Bronchus (relaxed by)” value in data set [7] was ≥ 0.13 m/m. Moreover, the LD50 in data set [8] was 165 to 200 mg/kg.
In the case of `O=NO` [Sodium nitrite, reference compound], the activation at 0.5 mg in data set [2] (0.5 h, read-out: Coronary Blood Flow Increase Ratio, 30 Minutes after Administration) came to 5%; in data set [2] (setting [11]) it was 20%.
`Cn1c(=O)c2[nH]cnc2n(C)c1=O` [Theophylline, reference compound]: the activation at 0.5 mg is -10% in data set [2] (setting [9]) and 32% in data set [2] (setting [10]). For the same compound, the “Blood Pressure … of change” value in data set [3] is “increase”. In addition, the “Heart Rate (up)” value in data set [3] is recorded as 29%.
In the case of `Nc1cc(-c2ccncc2)c[nH]c1=O` [amrinone, reference compound], the activation at 100 µg/mL in data set [4] (1.0 × 10^-4 g/ml) came out at 77%. For the same compound, the activation at 10 µg/mL in data set [4] was determined as 17%. Besides, in data set [5], the “Heart Rate (up)” value was 25% and the “Contractile Force of Ventricular Muscles (increase)” value was determined as 25%.
With `CC(C)NCC(O)c1ccc(O)c(O)c1` (centres unmarked) [isoproterenol, reference compound], the activation at 50 µg/mL in data set [1] stood at 40%.
